# Results: paper PMC6127211, “The DnaA AAA+ Domain His136 Residue Directs DnaB Replicative Helicase to the Unwound Region of the Replication Origin, oriC” (Frontiers in Microbiology, 2018)
# Where a chain is given by its changes, count along the chain named. Names may count otherwise. Read-outs that look alike come from different tables or passages of the source.
# T1: DnaA (Escherichia coli, UniProt P03004, H136A)
# T1 construct: full-length wild-type DnaA, overproduced from pKA234 (arabinose-inducible pING derivative) in E. coli KA450 and purified; no tag mentioned
# T1 sequence (P03004 1-467 H136A): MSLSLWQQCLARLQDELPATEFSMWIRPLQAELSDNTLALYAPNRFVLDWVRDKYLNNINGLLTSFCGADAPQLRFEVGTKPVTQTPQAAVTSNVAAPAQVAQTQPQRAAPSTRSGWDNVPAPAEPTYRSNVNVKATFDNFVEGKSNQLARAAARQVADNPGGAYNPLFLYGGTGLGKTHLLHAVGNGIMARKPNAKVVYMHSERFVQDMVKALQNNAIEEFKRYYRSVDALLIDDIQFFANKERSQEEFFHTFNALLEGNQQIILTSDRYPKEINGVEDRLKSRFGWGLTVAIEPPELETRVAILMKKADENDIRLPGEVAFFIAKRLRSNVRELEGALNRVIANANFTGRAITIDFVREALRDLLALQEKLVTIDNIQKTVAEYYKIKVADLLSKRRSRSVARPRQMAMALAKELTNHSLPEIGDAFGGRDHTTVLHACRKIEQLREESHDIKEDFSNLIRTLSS
# T2: DnaA (wild-type DnaA) (Escherichia coli, UniProt P03004)
# T2 construct: full-length wild-type DnaA, overproduced from pKA234 (arabinose-inducible pING derivative) in E. coli KA450 and purified; no tag mentioned
# T2 sequence (P03004 1-467): T1 sequence (P03004 1-467 H136A) with A136H
# B1: wild-type DnaA (natural protein, E. coli, UniProt P03004 1-467, looked up)
# chain: T1 sequence (P03004 1-467 H136A) with A136H
# notes: DnaA, chromosomal replication initiator protein, Escherichia coli; wild-type dnaA-coding region of pKA234; also called WT; ATP-DnaA; source: E. coli KA450, overproduced from pKA234, purified
# B2: DnaA H136A (natural protein, E. coli, UniProt P03004 1-467, looked up)
# chain: T1 sequence (P03004 1-467 H136A)
# notes: DnaA, Escherichia coli, with the substitution H136A in domain III; pH136A is a derivative of pKA234; also called DnaA H136A mutant protein; source: E. coli KA450, overproduced from pH136A, purified
# What was measured:
# [1] = molecular target: T1, DnaA; test: nucleotide binding to purified DnaA (method not described)
# From the text: (§1) nucleotide binding to purified DnaA (method not described) on DnaA (wild-type DnaA)
# [2] = molecular target: T2, DnaA (wild-type DnaA); test: as above
# From the text: as §1
# [3] = molecular target: T3, DnaB replicative helicase (E. coli, UniProt P0ACB0 1-471); test: pull-down; biotinylated oriC DNA (bio-oriC, 419 bp, 0.1 pmol) incubated on ice for 10 min with 5 pmol ATP-DnaA and different amounts of DnaB in buffer G (20 mM HEPES-KOH pH 7.6, 5 mM magnesium acetate, 1 mM EDTA, 10% glycerol, 0.1% Triton X-100, 4 mM DTT) with 1 mM ATP; recovered with streptavidin-coated beads; washed once with buffer G without KCl; silver staining with quantitative standards; no DnaC; details: both partners purified
# T3 construct: DnaB replicative helicase, Escherichia coli; No tag is named for the DnaB of the bio-oriC pull-down; The Form I* assay used His-DnaB and the His-DnaB pull-down used His-DnaB K236A; these forms are named in the readout of the functional rows; also called DnaB helicase
molecule,measurement,setting,value
Nc1ncnc2c1ncn2[C@@H]1O[C@H](COP(=O)(O)OP(=O)(O)O)[C@@H](O)[C@H]1O [ADP],Kd,[1]; read-out: KD (nM) / ADP,50 nM
same,Kd,[2]; read-out: KD (nM) / ADP,35 nM
Nc1ncnc2c1ncn2[C@@H]1O[C@H](COP(=O)(O)OP(=O)(O)OP(=O)(O)O)[C@@H](O)[C@H]1O [ATP],Kd,[1]; read-out: KD (nM) / ATP,21 nM
same,Kd,[2]; read-out: KD (nM) / ATP,24 nM
B1,binding result,[3],binds
B2,binding result,[3],binds
